Several values for one entry are separate records, joined by “and”; a condition that tells them apart may be missing. Equal entries are not always repeated.
These compounds were tested on BT-549 (assay: normalised viability (% of control), CellTiter-Blue; higher = more viable cells (about 100 = DMSO control)). Settings: 1000 nM; incubation time: 72 h.
Summary of the method: (§1)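 384-well plates were pre-loaded with compound in 5 µl medium before 20 µl of breast cancer cell suspension was seeded. Following 72 h incubation, 2.5 µl CellTiter-Blue reagent was added for 2 h at 37 °C. Fluorescence was read at 560/590 nm and plates were normalised to vehicle (100) and a positive kill control (0), checked by Z'-factor. Normalised viability is reported at a single listed concentration of the series.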

| Compound | normalised viability |
| --- | --- |
| COc1nc(N)nc2c1ncn2[C@@H]1O[C@H](CO)[C@@H](O)[C@@H]1O [Nelarabine] | 98% and 91% |
| Cc1ccc(Nc2nccc(N(C)c3ccc4c(C)n(C)nc4c3)n2)cc1S(N)(=O)=O [Pazopanib] | 86.6% |
| O=C(CCBr)N1CCN(C(=O)CCBr)CC1 [Pipobroman] | 87.1% |
| C[C@]12C=CC(=O)C=C1CC[C@@H]1[C@@H]2[C@@H](O)C[C@@]2(C)[C@H]1CC[C@]2(O)C(=O)CO [Prednisolone] | 92.2% |
| CC[C@@]1(O)C(=O)OCc2c1cc1n(c2=O)Cc2cc3c(CN(C)C)c(O)ccc3nc2-1 [Topotecan] | 62.9% |

Same assay, conditions: 2500 nM; incubation time: 72 h

| Compound | normalised viability [%] |
| --- | --- |
| c1cc(CN2CCCNCCNCCCNCC2)ccc1CN1CCCNCCNCCCNCC1 [Plerixafor] | 120 |

Same assay, conditions: 10000 nM; incubation time: 72 h

| Compound | normalised viability |
| --- | --- |
| Nc1ccccc1NC(=O)c1ccc(CNc2nccc(-c3cccnc3)n2)cc1 [Mocetinostat] | 35.9% |
| COc1nc(N)nc2c1ncn2[C@@H]1O[C@H](CO)[C@@H](O)[C@@H]1O [Nelarabine] | 86.4% and 80.4% |
| Cc1ccc(Nc2nccc(N(C)c3ccc4c(C)n(C)nc4c3)n2)cc1S(N)(=O)=O [Pazopanib] | 45.6% |
| O=C(CCBr)N1CCN(C(=O)CCBr)CC1 [Pipobroman] | 84.2% |
| C[C@]12C=CC(=O)C=C1CC[C@@H]1[C@@H]2[C@@H](O)C[C@@]2(C)[C@H]1CC[C@]2(O)C(=O)CO [Prednisolone] | 105% |

The compounds below were run on MDA-MB-468 in the same assay as above. Settings: 1 nM; incubation time: 72 h.
Summary of the method: as §1

| Compound | normalised viability [%] |
| --- | --- |
| CC[C@@]1(O)C(=O)OCc2c1cc1n(c2=O)Cc2cc3c(CN(C)C)c(O)ccc3nc2-1 [Topotecan] | 108 |

Same assay, conditions: 2.5 nM; incubation time: 72 h

| Compound | normalised viability [%] |
| --- | --- |
| c1cc(CN2CCCNCCNCCCNCC2)ccc1CN1CCCNCCNCCCNCC1 [Plerixafor] | 109 |

Same assay, conditions: 10 nM; incubation time: 72 h

| Compound | normalised viability |
| --- | --- |
| Nc1ccccc1NC(=O)c1ccc(CNc2nccc(-c3cccnc3)n2)cc1 [Mocetinostat] | 109% |
| COc1nc(N)nc2c1ncn2[C@@H]1O[C@H](CO)[C@@H](O)[C@@H]1O [Nelarabine] | 97.3% and 99% |
| Cc1ccc(Nc2nccc(N(C)c3ccc4c(C)n(C)nc4c3)n2)cc1S(N)(=O)=O [Pazopanib] | 106% |
| O=C(CCBr)N1CCN(C(=O)CCBr)CC1 [Pipobroman] | 98% |
| C[C@]12C=CC(=O)C=C1CC[C@@H]1[C@@H]2[C@@H](O)C[C@@]2(C)[C@H]1CC[C@]2(O)C(=O)CO [Prednisolone] | 102% |

Same assay, conditions: 100 nM; incubation time: 72 h

| Compound | normalised viability [%] |
| --- | --- |
| CC[C@@]1(O)C(=O)OCc2c1cc1n(c2=O)Cc2cc3c(CN(C)C)c(O)ccc3nc2-1 [Topotecan] | 45.6 |

Same assay, conditions: 250 nM; incubation time: 72 h

| Compound | normalised viability [%] |
| --- | --- |
| c1cc(CN2CCCNCCNCCCNCC2)ccc1CN1CCCNCCNCCCNCC1 [Plerixafor] | 112 |

Same assay, conditions: 1000 nM; incubation time: 72 h

| Compound | normalised viability |
| --- | --- |
| Nc1ccccc1NC(=O)c1ccc(CNc2nccc(-c3cccnc3)n2)cc1 [Mocetinostat] | 84.8% |
| COc1nc(N)nc2c1ncn2[C@@H]1O[C@H](CO)[C@@H](O)[C@@H]1O [Nelarabine] | 93.2% and 93.8% |
| Cc1ccc(Nc2nccc(N(C)c3ccc4c(C)n(C)nc4c3)n2)cc1S(N)(=O)=O [Pazopanib] | 108% |
| O=C(CCBr)N1CCN(C(=O)CCBr)CC1 [Pipobroman] | 94.2% |
| C[C@]12C=CC(=O)C=C1CC[C@@H]1[C@@H]2[C@@H](O)C[C@@]2(C)[C@H]1CC[C@]2(O)C(=O)CO [Prednisolone] | 115% |
| CC[C@@]1(O)C(=O)OCc2c1cc1n(c2=O)Cc2cc3c(CN(C)C)c(O)ccc3nc2-1 [Topotecan] | 12.8% |

Same assay, conditions: 2500 nM; incubation time: 72 h

| Compound | normalised viability [%] |
| --- | --- |
| c1cc(CN2CCCNCCNCCCNCC2)ccc1CN1CCCNCCNCCCNCC1 [Plerixafor] | 108 |

Same assay, conditions: 10000 nM; incubation time: 72 h

| Compound | normalised viability |
| --- | --- |
| Nc1ccccc1NC(=O)c1ccc(CNc2nccc(-c3cccnc3)n2)cc1 [Mocetinostat] | 8.4% |
| COc1nc(N)nc2c1ncn2[C@@H]1O[C@H](CO)[C@@H](O)[C@@H]1O [Nelarabine] | 94.3% and 93.1% |
| Cc1ccc(Nc2nccc(N(C)c3ccc4c(C)n(C)nc4c3)n2)cc1S(N)(=O)=O [Pazopanib] | 99.4% |
| O=C(CCBr)N1CCN(C(=O)CCBr)CC1 [Pipobroman] | 87.4% |
| C[C@]12C=CC(=O)C=C1CC[C@@H]1[C@@H]2[C@@H](O)C[C@@]2(C)[C@H]1CC[C@]2(O)C(=O)CO [Prednisolone] | 101% |

These compounds were tested on MDA-MB-231 in the same assay as above. Settings: 1 nM; incubation time: 72 h.
Summary of the method: as §1

| Compound | normalised viability [%] |
| --- | --- |
| CC[C@@]1(O)C(=O)OCc2c1cc1n(c2=O)Cc2cc3c(CN(C)C)c(O)ccc3nc2-1 [Topotecan] | 97 |

Same assay, conditions: 2.5 nM; incubation time: 72 h

| Compound | normalised viability [%] |
| --- | --- |
| c1cc(CN2CCCNCCNCCCNCC2)ccc1CN1CCCNCCNCCCNCC1 [Plerixafor] | 89.1 |

Same assay, conditions: 10 nM; incubation time: 72 h

| Compound | normalised viability |
| --- | --- |
| Nc1ccccc1NC(=O)c1ccc(CNc2nccc(-c3cccnc3)n2)cc1 [Mocetinostat] | 85.7% |
| COc1nc(N)nc2c1ncn2[C@@H]1O[C@H](CO)[C@@H](O)[C@@H]1O [Nelarabine] | 88.9% and 90.1% |
| Cc1ccc(Nc2nccc(N(C)c3ccc4c(C)n(C)nc4c3)n2)cc1S(N)(=O)=O [Pazopanib] | 86.3% |
| O=C(CCBr)N1CCN(C(=O)CCBr)CC1 [Pipobroman] | 97.8% |
| C[C@]12C=CC(=O)C=C1CC[C@@H]1[C@@H]2[C@@H](O)C[C@@]2(C)[C@H]1CC[C@]2(O)C(=O)CO [Prednisolone] | 113% |

Same assay, conditions: 100 nM; incubation time: 72 h

| Compound | normalised viability [%] |
| --- | --- |
| CC[C@@]1(O)C(=O)OCc2c1cc1n(c2=O)Cc2cc3c(CN(C)C)c(O)ccc3nc2-1 [Topotecan] | 80.5 |

Same assay, conditions: 250 nM; incubation time: 72 h

| Compound | normalised viability [%] |
| --- | --- |
| c1cc(CN2CCCNCCNCCCNCC2)ccc1CN1CCCNCCNCCCNCC1 [Plerixafor] | 98.5 |

Same assay, conditions: 1000 nM; incubation time: 72 h

| Compound | normalised viability |
| --- | --- |
| Nc1ccccc1NC(=O)c1ccc(CNc2nccc(-c3cccnc3)n2)cc1 [Mocetinostat] | 75.7% |
| COc1nc(N)nc2c1ncn2[C@@H]1O[C@H](CO)[C@@H](O)[C@@H]1O [Nelarabine] | 87.8% and 95% |
| Cc1ccc(Nc2nccc(N(C)c3ccc4c(C)n(C)nc4c3)n2)cc1S(N)(=O)=O [Pazopanib] | 88.7% |
| O=C(CCBr)N1CCN(C(=O)CCBr)CC1 [Pipobroman] | 104% |
| C[C@]12C=CC(=O)C=C1CC[C@@H]1[C@@H]2[C@@H](O)C[C@@]2(C)[C@H]1CC[C@]2(O)C(=O)CO [Prednisolone] | 129% |
| CC[C@@]1(O)C(=O)OCc2c1cc1n(c2=O)Cc2cc3c(CN(C)C)c(O)ccc3nc2-1 [Topotecan] | 59.8% |

Same assay, conditions: 2500 nM; incubation time: 72 h

| Compound | normalised viability [%] |
| --- | --- |
| c1cc(CN2CCCNCCNCCCNCC2)ccc1CN1CCCNCCNCCCNCC1 [Plerixafor] | 102 |

Same assay, conditions: 10000 nM; incubation time: 72 h

| Compound | normalised viability |
| --- | --- |
| Nc1ccccc1NC(=O)c1ccc(CNc2nccc(-c3cccnc3)n2)cc1 [Mocetinostat] | 22.4% |
| COc1nc(N)nc2c1ncn2[C@@H]1O[C@H](CO)[C@@H](O)[C@@H]1O [Nelarabine] | 92.7% and 89.8% |
| Cc1ccc(Nc2nccc(N(C)c3ccc4c(C)n(C)nc4c3)n2)cc1S(N)(=O)=O [Pazopanib] | 61.4% |
| O=C(CCBr)N1CCN(C(=O)CCBr)CC1 [Pipobroman] | 89.4% |
| C[C@]12C=CC(=O)C=C1CC[C@@H]1[C@@H]2[C@@H](O)C[C@@]2(C)[C@H]1CC[C@]2(O)C(=O)CO [Prednisolone] | 117% |

Each compound was assayed on SK-BR-3 in the same assay as above. Settings: 1 nM; incubation time: 72 h.
Summary of the method: as §1

| Compound | normalised viability [%] |
| --- | --- |
| CC[C@@]1(O)C(=O)OCc2c1cc1n(c2=O)Cc2cc3c(CN(C)C)c(O)ccc3nc2-1 [Topotecan] | 105 |

Same assay, conditions: 2.5 nM; incubation time: 72 h

| Compound | normalised viability [%] |
| --- | --- |
| c1cc(CN2CCCNCCNCCCNCC2)ccc1CN1CCCNCCNCCCNCC1 [Plerixafor] | 101 |

Same assay, conditions: 10 nM; incubation time: 72 h

| Compound | normalised viability |
| --- | --- |
| Nc1ccccc1NC(=O)c1ccc(CNc2nccc(-c3cccnc3)n2)cc1 [Mocetinostat] | 101% |
| COc1nc(N)nc2c1ncn2[C@@H]1O[C@H](CO)[C@@H](O)[C@@H]1O [Nelarabine] | 93.9% and 93.6% |
| Cc1ccc(Nc2nccc(N(C)c3ccc4c(C)n(C)nc4c3)n2)cc1S(N)(=O)=O [Pazopanib] | 98.4% |
| O=C(CCBr)N1CCN(C(=O)CCBr)CC1 [Pipobroman] | 101% |
| C[C@]12C=CC(=O)C=C1CC[C@@H]1[C@@H]2[C@@H](O)C[C@@]2(C)[C@H]1CC[C@]2(O)C(=O)CO [Prednisolone] | 114% |

Same assay, conditions: 100 nM; incubation time: 72 h

| Compound | normalised viability [%] |
| --- | --- |
| CC[C@@]1(O)C(=O)OCc2c1cc1n(c2=O)Cc2cc3c(CN(C)C)c(O)ccc3nc2-1 [Topotecan] | 48.7 |

Same assay, conditions: 250 nM; incubation time: 72 h

| Compound | normalised viability [%] |
| --- | --- |
| c1cc(CN2CCCNCCNCCCNCC2)ccc1CN1CCCNCCNCCCNCC1 [Plerixafor] | 99.7 |

Same assay, conditions: 1000 nM; incubation time: 72 h

| Compound | normalised viability [%] |
| --- | --- |
| Nc1ccccc1NC(=O)c1ccc(CNc2nccc(-c3cccnc3)n2)cc1 [Mocetinostat] | 55.5 |
| Cc1ccc(Nc2nccc(N(C)c3ccc4c(C)n(C)nc4c3)n2)cc1S(N)(=O)=O [Pazopanib] | 99 |
| O=C(CCBr)N1CCN(C(=O)CCBr)CC1 [Pipobroman] | 119 |
| C[C@]12C=CC(=O)C=C1CC[C@@H]1[C@@H]2[C@@H](O)C[C@@]2(C)[C@H]1CC[C@]2(O)C(=O)CO [Prednisolone] | 101 |
| CC[C@@]1(O)C(=O)OCc2c1cc1n(c2=O)Cc2cc3c(CN(C)C)c(O)ccc3nc2-1 [Topotecan] | 24.8 |

Same assay, conditions: 2500 nM; incubation time: 72 h

| Compound | normalised viability [%] |
| --- | --- |
| c1cc(CN2CCCNCCNCCCNCC2)ccc1CN1CCCNCCNCCCNCC1 [Plerixafor] | 106 |

From the supplement of paper PMC4862054
